From US8076487B2, “Pyridone derivative and herbicide” (Kumiai Chemical Industry Co., Ltd., priority 2006, dated 2011)

Key:
Format in all cases: in vivo
[1] = tested on: early watergrass (Echinochloa oryzicola Vasing); experiment: Test Example 1: herbicidal effect by soil application to paddy field; conditions: paddy field soil application; active ingredient 1,000 g per 1 hectare; wettable powder added dropwise to water surface the day after sowing; examined on the 21st day after application
How it was run: (§1)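 Under greenhouse conditions, seeds sown on puddled paddy soil in 100 cm2 pots under 3 cm of standing water received the test compound; injury was assessed with a standard scoring scheme three weeks (day 21) after treatment.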

[2] = tested on: heartshape false pickerelweed (Monochoria vaginalis (Burm.f.) C.Presl); experiment: as above; conditions: paddy field soil application; active ingredient 1,000 g per 1 hectare; wettable powder added dropwise to water surface the day after sowing; examined on the 21st day after application
How it was run: as §1

[3] = tested on: Japanese bulrush (Scirpus juncoides Roxb.); experiment: as above; conditions: paddy field soil application; active ingredient 1,000 g per 1 hectare; wettable powder added dropwise to water surface the day after sowing; examined on the 21st day after application
How it was run: as §1

[4] = tested on: velvetleaf (Abutilon theophrasti medicus); experiment: Test Example 3: herbicidal effect by application to upland field (foliage treatment); conditions: foliage treatment, plants grown two weeks, 1,000 g active ingredient per hectare, 14th day after application
How it was run: (§2)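 Foliar spray on two-week-old greenhouse weeds in field soil: wettable powder formulation diluted in water, applied at 1,000 L/ha to give 1,000 g a.i./ha. Damage rated by a fixed scoring standard on day 14 after application.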

[5] = tested on: barnyardgrass (Echinochloa crus-galli (L.) P. Beauv. var. crus-galli); experiment: as above; conditions: foliage treatment, plants grown two weeks, 1,000 g active ingredient per hectare, 14th day after application
How it was run: as §2

[6] = tested on: green foxtail (Setaria viridis (L.) P. Beauv.); experiment: as above; conditions: foliage treatment, plants grown two weeks, 1,000 g active ingredient per hectare, 14th day after application
How it was run: as §2

[7] = tested on: slender amaranth (Amaranthus viridis L.); experiment: as above; conditions: foliage treatment, plants grown two weeks, 1,000 g active ingredient per hectare, 14th day after application
How it was run: as §2

[8] = tested on: velvetleaf (Abutilon theophrasti medicus); experiment: Test Example 2: herbicidal effect by soil application to upland field; conditions: soil surface spray, upland field soil, 1,000 g active ingredient per hectare, 21st day after application
How it was run: (§3)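 Scoring on a standard scale took place 21 days after application, with plants kept in a greenhouse. Active ingredient (1,000 g/ha, as diluted wettable powder, 1,000 L/ha) was sprayed evenly onto soil directly after sowing and covering seeds.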

[9] = tested on: barnyardgrass (Echinochloa crus-galli (L.) P. Beauv. var. crus-galli); experiment: as above; conditions: soil surface spray, upland field soil, 1,000 g active ingredient per hectare, 21st day after application
How it was run: as §3

[10] = tested on: green foxtail (Setaria viridis (L.) P. Beauv.); experiment: as above; conditions: soil surface spray, upland field soil, 1,000 g active ingredient per hectare, 21st day after application
How it was run: as §3

[11] = tested on: slender amaranth (Amaranthus viridis L.); experiment: as above; conditions: soil surface spray, upland field soil, 1,000 g active ingredient per hectare, 21st day after application
How it was run: as §3

Row | SMILES | herbicidal effect, Echinochloa oryzicola Vasing [1] | herbicidal effect, Monochoria vaginalis (Burm. f.) C. Presl [2] | herbicidal effect, Scirpus juncoides Roxb. [3] | herbicidal effect (index), Velvetleaf [4] | herbicidal effect (index), Barnyardgrass [5] | herbicidal effect (index), Green Foxtail [6] | herbicidal effect (index), Slender Amaranth [7] | herbicidal effect (index), Velvetleaf [8] | herbicidal effect (index), Barnyardgrass [9] | herbicidal effect (index), Green Foxtail [10] | herbicidal effect (index), Slender Amaranth [11]
1 | COc1ccc(-n2c(C(F)(F)F)ccc(C(=O)C3=C(O)CCCC3=O)c2=O)cc1OC [I-100] | 5 (90% or more of herbicidal effect and crop phytotoxicity) | 5 (90% or more of herbicidal effect and crop phytotoxicity) | 5 (90% or more of herbicidal effect and crop phytotoxicity) | 5 (90% or more of herbicidal effect and crop phytotoxicity) | 5 (90% or more of herbicidal effect and crop phytotoxicity) | 4 (70 to less than 90% of herbicidal effect and crop phytotoxicity) | 5 (90% or more of herbicidal effect and crop phytotoxicity) | 5 (90% or more of herbicidal effect and crop phytotoxicity) | 5 (90% or more of herbicidal effect and crop phytotoxicity) | 4 (70 to less than 90% of herbicidal effect and crop phytotoxicity) | 5 (90% or more of herbicidal effect and crop phytotoxicity)
2 | COc1cc(OC)cc(-n2c(C(F)(F)F)ccc(C(=O)C3=C(O)CCCC3=O)c2=O)c1 [I-101] | 5 (90% or more of herbicidal effect and crop phytotoxicity) | 5 (90% or more of herbicidal effect and crop phytotoxicity) | 5 (90% or more of herbicidal effect and crop phytotoxicity) | 5 (90% or more of herbicidal effect and crop phytotoxicity) | 5 (90% or more of herbicidal effect and crop phytotoxicity) | 5 (90% or more of herbicidal effect and crop phytotoxicity) | 5 (90% or more of herbicidal effect and crop phytotoxicity) | 5 (90% or more of herbicidal effect and crop phytotoxicity) | 5 (90% or more of herbicidal effect and crop phytotoxicity) | 5 (90% or more of herbicidal effect and crop phytotoxicity) | 5 (90% or more of herbicidal effect and crop phytotoxicity)
3 | O=C1CCCC(O)=C1C(=O)c1ccc(C(F)(F)F)n(-c2ccc(F)cc2F)c1=O [I-102] | 5 (90% or more of herbicidal effect and crop phytotoxicity) | 5 (90% or more of herbicidal effect and crop phytotoxicity) | 5 (90% or more of herbicidal effect and crop phytotoxicity) | 5 (90% or more of herbicidal effect and crop phytotoxicity) | 5 (90% or more of herbicidal effect and crop phytotoxicity) | 5 (90% or more of herbicidal effect and crop phytotoxicity) | 5 (90% or more of herbicidal effect and crop phytotoxicity) | 5 (90% or more of herbicidal effect and crop phytotoxicity) | 5 (90% or more of herbicidal effect and crop phytotoxicity) | 5 (90% or more of herbicidal effect and crop phytotoxicity) | 5 (90% or more of herbicidal effect and crop phytotoxicity)
4 | O=C1CCCC(O)=C1C(=O)c1ccc(C(F)(F)F)n(-c2cc(F)ccc2F)c1=O [I-103] | 5 (90% or more of herbicidal effect and crop phytotoxicity) | 5 (90% or more of herbicidal effect and crop phytotoxicity) | 5 (90% or more of herbicidal effect and crop phytotoxicity) | 5 (90% or more of herbicidal effect and crop phytotoxicity) | 5 (90% or more of herbicidal effect and crop phytotoxicity) | 5 (90% or more of herbicidal effect and crop phytotoxicity) | 5 (90% or more of herbicidal effect and crop phytotoxicity) | 5 (90% or more of herbicidal effect and crop phytotoxicity) | 5 (90% or more of herbicidal effect and crop phytotoxicity) | 5 (90% or more of herbicidal effect and crop phytotoxicity) | 5 (90% or more of herbicidal effect and crop phytotoxicity)
5 | O=C1CCCC(O)=C1C(=O)c1ccc(C(F)(F)F)n(-c2ccc(F)c(F)c2)c1=O [I-105] | 5 (90% or more of herbicidal effect and crop phytotoxicity) | 5 (90% or more of herbicidal effect and crop phytotoxicity) | 5 (90% or more of herbicidal effect and crop phytotoxicity) | 5 (90% or more of herbicidal effect and crop phytotoxicity) | 5 (90% or more of herbicidal effect and crop phytotoxicity) | 5 (90% or more of herbicidal effect and crop phytotoxicity) | 5 (90% or more of herbicidal effect and crop phytotoxicity) | 5 (90% or more of herbicidal effect and crop phytotoxicity) | 5 (90% or more of herbicidal effect and crop phytotoxicity) | 5 (90% or more of herbicidal effect and crop phytotoxicity) | 5 (90% or more of herbicidal effect and crop phytotoxicity)
6 | O=C1CCCC(O)=C1C(=O)c1ccc(C(F)(F)F)n(-c2cc(F)cc(F)c2)c1=O [I-106] | 5 (90% or more of herbicidal effect and crop phytotoxicity) | 5 (90% or more of herbicidal effect and crop phytotoxicity) | 5 (90% or more of herbicidal effect and crop phytotoxicity) | 5 (90% or more of herbicidal effect and crop phytotoxicity) | 5 (90% or more of herbicidal effect and crop phytotoxicity) | 5 (90% or more of herbicidal effect and crop phytotoxicity) | 5 (90% or more of herbicidal effect and crop phytotoxicity) | 5 (90% or more of herbicidal effect and crop phytotoxicity) | 5 (90% or more of herbicidal effect and crop phytotoxicity) | 5 (90% or more of herbicidal effect and crop phytotoxicity) | 5 (90% or more of herbicidal effect and crop phytotoxicity)
7 | O=C1CCCC(O)=C1C(=O)c1ccc(C(F)(F)F)n(-c2cc([N+](=O)[O-])ccc2F)c1=O [I-107] | 5 (90% or more of herbicidal effect and crop phytotoxicity) | 5 (90% or more of herbicidal effect and crop phytotoxicity) | 5 (90% or more of herbicidal effect and crop phytotoxicity) | 5 (90% or more of herbicidal effect and crop phytotoxicity) | 5 (90% or more of herbicidal effect and crop phytotoxicity) | 3 (50 to less than 70% of herbicidal effect and crop phytotoxicity) | 5 (90% or more of herbicidal effect and crop phytotoxicity) | 5 (90% or more of herbicidal effect and crop phytotoxicity) | 5 (90% or more of herbicidal effect and crop phytotoxicity) | 5 (90% or more of herbicidal effect and crop phytotoxicity) | 5 (90% or more of herbicidal effect and crop phytotoxicity)
8 | COc1cc(-n2c(C(F)(F)F)ccc(C(=O)C3=C(O)CCCC3=O)c2=O)ccc1Cl [I-108] | 5 (90% or more of herbicidal effect and crop phytotoxicity) | 5 (90% or more of herbicidal effect and crop phytotoxicity) | 5 (90% or more of herbicidal effect and crop phytotoxicity) | 5 (90% or more of herbicidal effect and crop phytotoxicity) | 5 (90% or more of herbicidal effect and crop phytotoxicity) | 5 (90% or more of herbicidal effect and crop phytotoxicity) | 5 (90% or more of herbicidal effect and crop phytotoxicity) | 5 (90% or more of herbicidal effect and crop phytotoxicity) | 5 (90% or more of herbicidal effect and crop phytotoxicity) | 4 (70 to less than 90% of herbicidal effect and crop phytotoxicity) | 5 (90% or more of herbicidal effect and crop phytotoxicity)
